Data as given in article PMC7571068, “Antiproliferative and Pro-Apoptotic Effect of Uvaol in Human Hepatocarcinoma HepG2 Cells by Affecting G0/G1 Cell Cycle Arrest, ROS Production and AKT/PI3K Signaling Pathway” (Molecules, 2020).
In brackets after ≈: the same amount, converted by molar mass.

Tests used:
[1] = test system: WRL68 cells; experiment: MTT cytotoxicity assay; assay type: cell-based; details: Homo sapiens, mean ± SEM (n = 9)
Experimental: MTT assay was performed as described by Pérez-Jiménez et al.. Briefly, samples containing 200 µL cell suspension (1 × 10^4 cells/well) were cultured in 96 well plates, in triplicate of three populations of the both cell lines. Subsequent to adherence of the cells within 12 h of incubation, Uvaol was added to the wells at a concentration between 0–140 μg/mL and maintained during 24, 48 and 72 h. MTT was dissolved in the medium and added to the wells at a final concentration of 0.5 mg/mL. Following 2 h of incubation, the generated formazan was dissolved in DMSO. Absorbance was measured at 570 nm in a multiplate reader (Bio-tek®, Winooski, VT, USA). The concentrations that caused 20%, 50% and 80% of inhibition of cell viability (IC20, IC50 and IC80) were calculated following the formula: % […] = (A0 − AT)/A0·100, where A0 is the control absorbance (100% of cell viability) and AT is de absorbance of the incubated cells with the different concentrations of uvaol. OriginPro 8 (OriginLab Corporation, Northampton, MA, USA) was used to performance a dose-response analysis by the following formula: y=A1+ A2− A1/1+10^(Log x0−x)p
In which Logx0 is the center of the curve, p the slope, A1 the lower asymptote and A2 the upper asymptote in the adjustment model described.

[2] = test system: HepG2 cells; experiment: Muse cell cycle assay (flow cytometry); assay type: cell-based, human; details: HepG2, IC50, 24 h
Experimental: (§1) A total of 1.5 × 10^5 cells were seeded per well in 24-well plates for each cell line (quadruplicates for three different populations of each cell line). […] Negative control populations were incubated only with the appropriate culture medium. The samples were analyzed in the Muse^TM Cell Analyzer (Merck-Millipore®, Burlington, MA, USA). The method is based on the analysis of the cell cycle through the discrimination of three populations: cells in phase G0/G1, S or G2/M. For this, the Muse^TM Cell Cycle Kit purchased from Millipore (Billerica, MA, USA) was used following the specification of manufacturer.

[3] = test system: WRL68 cells; experiment: Muse cell cycle assay (flow cytometry); assay type: cell-based, human; details: WRL68, IC50, 24 h
Experimental: as §1

[4] = test system: HepG2 cells; experiment: Muse Annexin V & Dead Cell apoptosis assay; assay type: cell-based, human; details: HepG2, uvaol IC50, 24 h
Experimental: (§2) A total of 1.5 × 10^5 cells were seeded per well in 24-well plates for each cell line (quadruplicates for three different populations of each cell line). […] Negative control populations were incubated only with the appropriate culture medium. The samples were analyzed in the Muse^TM Cell Analyzer (Merck-Millipore®, Burlington, MA, USA). Phosphatidylserine (PS) is a phospholipid that is usually found in the inner half of the cytoplasmic membrane, but is outsourced when loss of integrity occurs in the apoptosis process. The method is based on the recognition and binding to the PS exposed by annexin V protein, labeled with a fluorescent substance to detect the interaction and quantify it. We used the Muse^TM Annexin V & Dead Cell kit purchased from Millipore (Billerica, MA, USA), which provides the percentage of viable cells, apoptotic and affected by necrosis.

[5] = test system: WRL68 cells; experiment: Muse Annexin V & Dead Cell apoptosis assay; assay type: cell-based, human; details: WRL68, uvaol IC50, 24 h
Experimental: as §2

[6] = test system: HepG2 cells; experiment: Muse Oxidative Stress kit, ROS production; assay type: cell-based, human; details: HepG2, IC50, 24 h
Experimental: (§3) A total of 1.5 × 10^5 cells were seeded per well in 24-well plates for each cell line (quadruplicates for three different populations of each cell line). […] Negative control populations were incubated only with the appropriate culture medium. The samples were analyzed in the Muse^TM Cell Analyzer (Merck-Millipore®, Burlington, MA, USA). The method is based on the use of dihydroetide (DHE), a reagent capable of crossing the cell membrane and interacting with superoxide anions, a type of ROS. In this process, DHE oxidizes and forms the DNA intercalating agent ethidium bromide, detectable by its fluorescence emission. […] The Muse^TM Oxidative Stress kit purchased from Millipore (Billerica, MA, USA) was used for this purpose.

[7] = test system: WRL68 cells; experiment: Muse Oxidative Stress kit, ROS production; assay type: cell-based, human; details: WRL68, IC50, 24 h
Experimental: as §3

[8] = test system: AKT/PI3K and ERK1/2/MAPK signaling pathways in HepG2 cells; experiment: Muse PI3K/MAPK Dual Pathway activation assay; assay type: cell-based, human; details: HepG2, IC50, 24 h
Experimental: (§4) The Muse® PI3K/MAPK Dual Pathway activation kit purchased from Millipore (Billerica, MA, USA) was employed to examine both the PI3K and MAPK signaling pathways simultaneously using the Muse Cell Analyzer (Merck-Millipore®, Burlington, MA, USA). The protocol followed was performed as the manufacturer instructions. The samples (quadruplicates for three different populations of each cell line) were analyzed in the Muse^TM Cell Analyzer.

[9] = test system: AKT/PI3K and ERK1/2/MAPK signaling pathways in WRL68 cells; experiment: Muse PI3K/MAPK Dual Pathway activation assay; assay type: cell-based, human; details: WRL68, IC50, 24 h
Experimental: as §4

[10] = test system: HepG2 cells; experiment: Morphological changes, optical microscopy; assay type: cell-based, human; details: HepG2, IC50, 24 h
Experimental: Optical microscopy (Olympus® model CX22LED, Tokyo, Japan) images of the cultures were obtained in the mentioned conditions at 10 and 40 magnifications for the cell line each after 24 h of the treatment’s application.

[11] = test system: MDA-MB-231 (triple negative breast cancer); set-up: method as in PMID 21142067; details: MDA-MB-231, 10 and 100 µM; cited from earlier work
[12] = test system: MCF-7 cells; set-up: method as in PMID 21142067; details: MCF-7, 10 and 100 µM; cited from earlier work

C[C@H]1[C@H](C)CC[C@]2(CO)CC[C@]3(C)C(=CC[C@@H]4[C@@]5(C)CC[C@H](O)C(C)(C)[C@@H]5CC[C@]43C)[C@H]12 [uvaol, urs-12-ene-3,28-diol]
IC20 ([1]; WRL68, 24 h exposure): 27.6 ± 2.9 µg/mL (≈ 62.3 µM) | IC50 ([1]; WRL68, 24 h exposure): 54.3 µg/mL (≈ 123 µM) | IC20 ([1]; WRL68, 48 h exposure): 13.3 ± 0.8 µg/mL (≈ 30 µM) | IC50 ([1]; WRL68, 48 h exposure): 35.9 ± 0.7 µg/mL (≈ 81.1 µM) | IC80 ([1]; WRL68, 48 h exposure): 79.8 ± 0.6 µg/mL (≈ 180 µM) | IC20 ([1]; WRL68, 72 h exposure): 6.8 ± 0.6 µg/mL (≈ 15.4 µM) | IC50 ([1]; WRL68, 72 h exposure): 19.5 ± 1.1 µg/mL (≈ 44 µM) | IC80 ([1]; WRL68, 72 h exposure): 47.2 ± 4.3 µg/mL (≈ 107 µM) | change in percentage of cells in G0/G1 phase vs control [2]: statistically significant increase | change in percentage of cells in G2/M phase vs control [2]: equally significant reduction | change in percentage of cells in S phase vs control [2]: No differences were found | change in percentage of cells in G0/G1 phase vs control [3]: significant decrease | change in percentage of cells in G2/M phase vs control [3]: increase | change in percentage of cells in S phase vs control [3]: significant decrease | change in percentage of viable cells vs control [4]: significant reduction | change in proportion of apoptotic cells vs control [4]: increasing the proportion of apoptotic cells | change in number of apoptotic and necrotic cells vs control [5]: equally significant increase | change in number of viable cells vs control [5]: significant decrease | change in percentage of cells expressing ROS vs control [6]: significant decrease | change in ROS levels vs control [7]: without significant differences | change in percentage of cells that only activated ERK1/2/MAPK [8]: not altered | decrease in cells that only activated AKT/PI3K [8]: 25% | increase in cells with activated dual pathway (MAPK and PI3K) [8]: 9% | net balance: increase of ERK1/2/MAPK signaling pathway [8]: 9% | net balance: inhibition of AKT/PI3K signaling pathway [8]: 16% | change in percentage of cells in which only ERK1/2/MAPK was activated [9]: not altered | decrease in cells that only activated the AKT/PI3K pathway [9]: 22% | increase in cells that activated the dual pathway (MAPK and PI3K) [9]: 25% | net balance: activation of the ERK1/2/MAPK signaling pathway [9]: 25% | net balance: modification of the PI3K pathway [9]: no modification | cell morphology change [10]: slightly more rounded, with very sharp projections and a loss of adhesion to the support | induction of apoptosis [11]: did not show this effect | induction of apoptosis [12]: did not show this effect
